Read-outs that look alike come from different tables or passages of the source.
Assays:
MDA-MB-231 tumors = assay: EC17 pre-painting combined with delayed second EC17 dose (Example 30); type: in vivo, mice
Procedure: FITC-CAR-T related toxicity (e.g. sCRS) can be reduced by the combination of EC17 pre-painting and the delay of EC17 dosing post CAR-T administration. To explore strategies to control therapy-related toxicity, the combination of the EC17 pre-painting and EC17 dosing schedule optimization was evaluated. Mice bearing MDA-MB-231 tumors (100-200 mm3) were divided into three groups. Mice in group #1 (no EC17 pre-painting) were administered with 8 million FITC-CAR-T cells through the tail vein, and 500 nmol/kg EC17 was then dosed as a single dose per week (at days 2, 9, 16, etc.) post CAR-T administration. Mice in group #2 (EC17 4 hour pre-painting) were pre-painted with 500 nmol/kg EC17 4 hours before the administration of 8 million CAR-T cells, and 500 nmol/kg EC17 was then dosed as a single dose per week post CAR-T administration. Mice in group #3 (EC17 4 hour pre-painting+delayed second EC17 dose) were also pre-painted with 500 nmol/kg EC17 4 hours before the administration of 8 million CAR-T cells, but the second dose of 500 nmol/kg EC17 was postponed until 7 days after CAR-T administration, and the single dose per week schedule of EC17 dosing was then followed. Three days after CAR-T administration, mice in the three groups were evaluated by visual observation.

[1] = test system: MDA-MB-231 solid tumor xenografts; type: in vivo
Procedure: MDA-MB-231 cells were subcutaneously injected into the shoulders of NSG mice (Jackson Laboratory) to establish solid tumor xenografts. When tumor volume reached around 50-100 mm^3, anti-FITC CAR T cells (15×10^6 cells) were intravenously introduced into tumor-bearing mice. Twenty NSG mice were divided into four study groups (5 animals in each group). The first group was treated with anti-FITC CAR T cells with phosphate-buffered saline (PBS) as a negative control. The second, third, and fourth groups were treated with anti-FITC CAR T cells with FITC-Folate (500 nmole/kg) every other day. Once a significant toxicity (e.g. serious loss of body weight) was detected, these groups were treated with either: continued FITC-Folate administration (second group); discontinuation of FITC-Folate administration until the mice recovered (third group); or a mixture of 100-fold excess of EC0923 (i.e. free folate) and FITC-Folate until the mice recovered (fourth group). The body weight was measured regularly to monitor toxicity. In addition, the blood concentration of interferon (IFN)-gamma for each treatment group was measured to monitor the degree of anti-FITC CAR T activation. Finally, tumor volume was measured to identify anti-tumor efficacy in each treatment group.

[2] = test system: anti-FITC CAR T cells with MDA-MB-231; assay: In vitro interferon-γ assay (Example 22); type: cell-based, Human
Procedure: In order to study the relationship between bridge dose and anti-FITC CAR T cell activation, a folate receptor positive cancer cell line (MDA-MB-231) was seeded at a density of 10^4 cells/100 ul of media in each well of a 96-well plate and the cells were grown overnight. Anti-FITC CAR T cells (5×10^4 cells) were then added into each well containing cancer cells with various concentrations of Folate-FITC (from 0.001 nM to 100 μM) for 6-24 hours. After co-incubation, the plates containing anti-FITC CAR T cells and cancer cells were centrifuged for 10 min at 350×g to remove cells and cellular debris, and 50 ul of supernatant was assayed by ELISA (Human IFN-γ ELISA kit from Biolegend) to detect IFN-γ production by anti-FITC CAR T cells.

MDA-MB-231 = assay: FITC-Folate dose escalation study in vivo (Example 20)
Procedure: To test whether gradual escalation of FITC-Folate dose can minimize CART cell mediated toxicity without compromising anti-tumor efficacy of CAR T cells, an experiment was designed. A dose of FITC-Folate (0.05 nmole/kg) was introduced first into NSG mice bearing MDA-MB-231 (tumor volume about 50-100 mm^3) along with anti-FITC CAR T cell injections (using about 15×10^6 cells). An additional two doses of about 0.05 nmole/kg FITC-Folate was administered to the mice. […] After a gradual increase of FITC-Folate dose, mice were treated with a 500 nmole/kg dose of FITC-Folate. […] General toxicity of each treatment group was monitored by measuring body weight loss. Tumor volume was measured to monitor anti-FITC CAR T cells' anti-tumor efficacy.

[3] = test system: MDA-MB-231 solid tumor xenografts; assay: Control of CAR T cell activation in vivo: break, FA competitor or both (Example 19); details: 15×10^6 CAR T cells + FITC-Folate 500 nmole/kg every other day
Procedure: Five study groups were designed to test whether anti-FITC CAR T cell activation can be controlled via temporal termination of FITC-ligands, by administering a competitor small molecule, or a combination approach of both discontinuing of FITC-ligands and/or administering an FA competitor. The first group was treated by administering anti-FITC CAR T cell with phosphate-buffered saline (PBS) as a negative control. Every other day over the course of the study, the second, third, fourth and fifth groups were treated with anti-FITC CAR T cell mixed with FITC-Folate (500 nmole/kg). […] Mouse bodyweight was measured regularly to test for toxicity.

MDA-MB-231 cells = assay: Control of CRS with bridge molecules in vivo (Example 43); set-up: species or system NSG mice
Procedure: Mice were maintained on folic acid-deficient diet (TD.95247, Envigo) in order to reduce the level of folic acid in mice to a physiological levels found in humans. Tumors were measured every other day with calipers, and tumor volume was calculated according to equation: Tumor volume=½(L×W^2) where L is the longest axis of the tumor and W is the axis perpendicular to L. Mouse blood was also collected to measure cytokine levels (e.g. IL-2, IL-6, IFNγ, and TNFα) using LEGENDplex bead-based immunoassay (Biolegend, CA) and systemic toxicity was monitored by measuring body weight loss. All animal care and use followed by National Institutes of Health (NIH) guidelines and all experimental protocols were approved by the Purdue Animal Care and Use Committee.

Question: Which anti-tumor outcome (MDA-MB-231 tumors; all three groups) does the source give for `Nc1nc2ncc(CNc3ccc(C(=O)NC(CCC(=O)NCCNC(=S)Nc4ccc(-c5c6ccc(=O)cc-6oc6cc(O)ccc56)c(C(=O)O)c4)C(=O)O)cc3)nc2c(=O)[nH]1` (centres unmarked) [EC17, FITC-Folate] here?
Answer: Its anti-tumor outcome is “complete responses”.

Question: What about the “sCRS by visual observation” value (MDA-MB-231 tumors; group #1 no pre-painting, three days after CAR-T) of the same molecule?
Answer: The value was “the worst sCRS”.

Question: What about the “sCRS by visual observation” value (MDA-MB-231 tumors; group #2 EC17 4 hour pre-painting) of the same molecule?
Answer: The value was “sCRS but less severe”.

Question: What about the “sCRS by visual observation” value (MDA-MB-231 tumors; group #3 EC17 4 hour pre-painting + delayed second EC17 dose) of the same molecule?
Answer: Its value is “didn't show sCRS”.

Question: What about the IFN-gamma blood concentration ([1]; break group) of the same molecule?
Answer: Its IFN-gamma blood concentration is “decreased”.

Question: And the complete response ([1]; break group)?
Answer: The complete response was 100%.

Question: And the IFN-gamma blood concentration ([1]; continued dose group)?
Answer: The IFN-gamma blood concentration was “a significant amount IFN-gamma was detected”.

Question: And the “survival of mice at the first week of treatment” value ([1]; continued dose group)?
Answer: Its value is 40%.

Question: What about the tumor response ([1]; continued dose group) of the same molecule?
Answer: The tumor response was “delay of tumor growth”.

Question: What about the “optimal bridge dose (highest IFN-γ level)” value ([2]; 0.001 nM to 100 μM, 6-24 hours) of the same molecule?
Answer: The value was 10 nM.

Question: What about the IFN-γ production ([2]; 10 μM and 100 μM) of the same molecule?
Answer: The IFN-γ production was “not detected”.

Question: What about the “effect on CAR T cells' anti-tumor efficacy” value (MDA-MB-231; gradual escalation) of the same molecule?
Answer: Its value is “did not negatively affect”.

Question: What about the toxicity (MDA-MB-231; gradual escalation 0.05 to 500 nmole/kg, 15×10^6 CAR T cells) of the same molecule?
Answer: The toxicity was “no serious toxicity”.

Question: And the “weight loss (serious CAR T cell mediated toxicity)” value [3]?
Answer: The value was > 10%.

Question: What about the tumor outcome (MDA-MB-231 cells; 500 nmole/kg, days 4 and 6 omitted) of the same molecule?
Answer: The tumor outcome was “complete tumor eradication”.

Question: And the “mice requiring euthanasia by day 8” value (MDA-MB-231 cells; 15×10^6 CAR T cells, continuous alternate day 500 nmole/kg)?
Answer: The value was “three of the mice”.

Question: And the body weight (MDA-MB-231 cells; continuous dosing of 500 nmole/kg, 15×10^6 CAR T cells)?
Answer: Its body weight is “dramatic and continuous weight loss”.

Question: And the therapeutic benefit (MDA-MB-231 cells; continuous dosing schedule)?
Answer: The therapeutic benefit was “little therapeutic benefit”.

Question: What about the tumor outcome (MDA-MB-231 cells; continuously treated) of the same molecule?
Answer: Its tumor outcome is “rapid increase in tumor growth”.

Question: What about the “time to resolution of transient weight loss” value (MDA-MB-231 cells; escalation 0.5 to 500 nmole/kg, 15×10^6 CAR T cells) of the same molecule?
Answer: The value was ≤ 4 days.

Question: What about the tumor outcome (MDA-MB-231 cells; gradual dose escalation regimen) of the same molecule?
Answer: Its tumor outcome is “complete cures”.

Question: What about the tumor outcome (MDA-MB-231 cells; interrupted dosing) of the same molecule?
Answer: Its tumor outcome is “complete remission of their tumors”.

Question: What about the body weight (MDA-MB-231 cells; interrupted dosing (days 4 and 6 omitted)) of the same molecule?
Answer: The body weight was “only a moderate weight loss from which they rapidly recovered”.

Question: And the tumor outcome (MDA-MB-231 cells; one dose per week)?
Answer: Its tumor outcome is “complete cures”.

Question: And the body weight (MDA-MB-231 cells; single injection per week)?
Answer: Its body weight is “no weight loss”.

Question: And the body weight (MDA-MB-231 cells; three doses per week, 5×10^6 CAR T cells)?
Answer: Its body weight is “significant animal weight loss”.

Question: What about the body weight loss (MDA-MB-231 cells; tumor-bearing mice, within 4 days, 5×10^6 CAR T cells + 500 nmoles/kg) of the same molecule?
Answer: The body weight loss was ~8%.

Question: What about the body weight (MDA-MB-231 cells; tumor-free mice) of the same molecule?
Answer: The body weight was “no weight loss was detected”.

Question: And the toxicity (MDA-MB-231 cells; two doses per week)?
Answer: Its toxicity is “less toxicity”.

From patent US11759480B2, “Compositions and methods for CAR T cell therapy” (ENDOCYTE, INC., priority 2017, dated 2023)
